# Molecular target: T1, human CCR6 (Homo sapiens, UniProt P51684)
# T1 construct: expressed in transfected cells; host or cells: HEK-293
# T1 sequence (P51684 1-374): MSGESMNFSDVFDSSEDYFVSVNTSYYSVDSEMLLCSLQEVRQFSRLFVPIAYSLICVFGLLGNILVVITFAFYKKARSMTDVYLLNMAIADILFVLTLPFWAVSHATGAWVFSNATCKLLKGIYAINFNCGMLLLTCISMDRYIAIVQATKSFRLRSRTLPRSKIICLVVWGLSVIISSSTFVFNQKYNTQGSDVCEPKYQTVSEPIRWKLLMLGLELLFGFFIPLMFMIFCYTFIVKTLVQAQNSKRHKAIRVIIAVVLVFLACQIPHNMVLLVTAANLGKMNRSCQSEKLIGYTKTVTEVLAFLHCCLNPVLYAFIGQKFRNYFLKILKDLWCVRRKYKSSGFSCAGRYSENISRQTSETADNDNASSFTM
# Assay: FLIPR assay (inhibition of CCL20-induced calcium signal)
# Type: cell-based
# Settings: HEK-293 cells expressing human CCR6; mean values where determined several times; read-out: FLIPR IC50
# Procedure, shortened: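 IC50 values come from baseline-corrected peak calcium fluorescence after agonist. The agonist was CCL20 at 10 nM final, added to engineered human CCR6 HEK-293 cells following a 30-min, room-temperature, dark preincubation with serially diluted compound. Readings were taken in a fluorometric imaging plate reader.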
row,Structure (SMILES),IC50 [nM]
1,"CC(C)c1ccc([C@](O)(c2cncc(-c3noc(C(C)(C)O)n3)c2)C2(F)CN(C)C2)cc1 [Example 445, 2-(3-{5-[(S)-(3-Fluoro-1-methyl-azetidin-3-yl)-hydroxy-(4-isopropyl-phenyl)-methyl]-pyridin-3-yl}-[1,2,4]oxadiazol-5-yl)-propan-2-ol]",44.8
2,"CC(C)c1ccc([C@](O)(c2cncc(-c3noc(C(C)(C)O)n3)c2)C2(F)CN(C3CC3)C2)cc1 [Example 446, 2-(3-{5-[(S)-(1-Cyclopropyl-3-fluoro-azetidin-3-yl)-hydroxy-(4-isopropyl-phenyl)-methyl]-pyridin-3-yl}-[1,2,4]oxadiazol-5-yl)-propan-2-ol]",48.4
3,"CC(=O)N1CCC(c2nc(-c3cncc([C@@](O)(c4ccc(C(C)C)cc4)C4(F)CN(C)C4)c3)no2)CC1 [Example 447, 1-[4-(3-{5-[(S)-(3-Fluoro-1-methyl-azetidin-3-yl)-hydroxy-(4-isopropyl-phenyl)-methyl]-pyridin-3-yl}-[1,2,4]oxadiazol-5-yl)-piperidin-1-yl]-ethanone]",43.2
4,"CC(C)c1ccc([C@](O)(c2cncc(-c3noc(C(C)(C)O)n3)c2)C2(C)CN(C3CC3)C2)cc1 [Example 449, 2-(3-{5-[(R)-(1-Cyclopropyl-3-methyl-azetidin-3-yl)-hydroxy-(4-isopropyl-phenyl)-methyl]-pyridin-3-yl}-[1,2,4]oxadiazol-5-yl)-propan-2-ol]",40.8
5,CC(=O)N1CCC(c2nc(-c3cncc([C@@](O)(c4ccc(C(C)C)cc4)C4(C)CN(C5CC5)C4)c3)no2)CC1 [Example 450],57.8
6,CC(C)c1ccc([C@](O)(c2cncc(-c3noc([C@H]4CC[C@H](O)CC4)n3)c2)C2(C)CN(C3CC3)C2)cc1 [Example 452],33.6
7,CC(C)c1ccc([C@](O)(c2cncc(-c3noc(C4COC4)n3)c2)C2(C)CN(C3CC3)C2)cc1 [Example 453],58.1
8,"CC(=O)N1CC[C@H](Cc2nc(-c3cncc([C@@](O)(c4ccc(C(C)C)cc4)C4(C)CN(C)C4)c3)no2)C1 [Example 454, 1-[(R)-3-(3-{5-[(R)-(1,3-Dimethyl-azetidin-3-yl)-hydroxy-(4-isopropyl-phenyl)-methyl]-pyridin-3-yl}-[1,2,4]oxadiazol-5-ylmethyl)-pyrrolidin-1-yl]-ethanone]",103
9,CC(=O)N1CCCC(O)(c2nc(-c3cncc([C@@](O)(c4ccc(C(C)C)cc4)C4(C)CN(C)C4)c3)no2)C1 (stereo partly shown) [Example 456],201
10,CC(=O)N1CCCC(Cc2nc(-c3cncc([C@@](O)(c4ccc(C(C)C)cc4)C4(C)CN(C)C4)c3)no2)C1 (stereo partly shown) [Example 458],99
11,CC(=O)N1CCC(O)(Cc2nc(-c3cncc([C@@](O)(c4ccc(C(C)C)cc4)C4(C)CN(C)C4)c3)no2)CC1 [Example 459],440
12,CC(C)c1ccc([C@](O)(c2cncc(-c3noc(CC4(NC(=O)C5CCOCC5)CC4)n3)c2)C2(C)CN(C)C2)cc1 [Example 461],384
13,COCC(=O)NC1(Cc2nc(-c3cncc([C@@](O)(c4ccc(C(C)C)cc4)C4(C)CN(C)C4)c3)no2)CC1 [Example 462],286
14,CC(C)c1ccc([C@](O)(c2cncc(-c3noc(CC(C)(C)NC(=O)C4CCOCC4)n3)c2)C2(C)CN(C)C2)cc1 [Example 466],143
15,CC(C)C(=O)NC(C)(C)Cc1nc(-c2cncc([C@@](O)(c3ccc(C(C)C)cc3)C3(C)CN(C)C3)c2)no1 [Example 467],129
16,CC(C)c1ccc([C@](O)(c2cncc(-c3noc(CC(C)(C)NC(=O)C4CC4)n3)c2)C2(C)CN(C)C2)cc1 [Example 468],62.3
17,CC(=O)N1CC[C@H](c2nc(-c3cncc([C@@](O)(c4ccc(C(C)C)cc4)C4(C)CN(C)C4)c3)no2)C[C@@H]1C [Example 469],137
18,CC(C)C(=O)N1CCC(O)(c2nc(-c3cncc([C@@](O)(c4ccc(C(C)C)cc4)C4(C)CN(C)C4)c3)no2)CC1 [Example 470],131
19,CCC(=O)N1CCC(O)(c2nc(-c3cncc([C@@](O)(c4ccc(C(C)C)cc4)C4(C)CN(C)C4)c3)no2)CC1 [Example 471],125
20,"CC(C)c1ccc([C@](O)(c2cncc(-c3noc(C4CCN(C(=O)CC(F)(F)F)CC4)n3)c2)C2(C)CN(C)C2)cc1 [Example 473, 1-[4-(3-{5-[(R)-(1,3-Dimethyl-azetidin-3-yl)-hydroxy-(4-isopropyl-phenyl)-methyl]-pyridin-3-yl}-[1,2,4]oxadiazol-5-yl)-piperidin-1-yl]-3,3,3-trifluoro-propan-1-one]",77.6
21,"CC(C)c1ccc([C@](O)(c2cncc(-c3noc(C4CCN(C(=O)CC5COC5)CC4)n3)c2)C2(C)CN(C)C2)cc1 [Example 474, 1-[4-(3-{5-[(R)-(1,3-Dimethyl-azetidin-3-yl)-hydroxy-(4-isopropyl-phenyl)-methyl]-pyridin-3-yl}-[1,2,4]oxadiazol-5-yl)-piperidin-1-yl]-2-oxetan-3-yl-ethanone]",121
22,CCC1(c2nc(-c3cncc([C@@](O)(c4ccc(C(C)C)cc4)C4(C)CN(C)C4)c3)no2)CCN(C(C)=O)CC1 [Example 475],54.7

# Second part, the compound after the results:
row,IC50 [nM],Structure (SMILES)
1,35.2,"CC(=O)N1CCC(c2nc(-c3cncc([C@@](O)(c4ccc(C(C)C)cc4)C4(F)CN(C5CC5)C4)c3)no2)CC1 [Example 448, 1-[4-(3-{5-[(S)-(1-Cyclopropyl-3-fluoro-azetidin-3-yl)-hydroxy-(4-isopropyl-phenyl)-methyl]-pyridin-3-yl}-[1,2,4]oxadiazol-5-yl)-piperidin-1-yl]-ethanone]"
2,43.5,CC(C)c1ccc([C@](O)(c2cncc(-c3noc(C4CCOCC4)n3)c2)C2(C)CN(C3CC3)C2)cc1 [Example 451]
3,83.1,CC(=O)N1CCCC(c2nc(-c3cncc([C@@](O)(c4ccc(C(C)C)cc4)C4(C)CN(C)C4)c3)no2)C1 (stereo partly shown) [Example 455]
4,56.4,CC(=O)N1CCCC(C)(c2nc(-c3cncc([C@@](O)(c4ccc(C(C)C)cc4)C4(C)CN(C)C4)c3)no2)C1 (stereo partly shown) [Example 457]
5,469,"CC(=O)NC1(Cc2nc(-c3cncc([C@@](O)(c4ccc(C(C)C)cc4)C4(C)CN(C)C4)c3)no2)CC1 [Example 460, N-[1-(3-{5-[(R)-(1,3-Dimethyl-azetidin-3-yl)-hydroxy-(4-isopropyl-phenyl)-methyl]-pyridin-3-yl}-[1,2,4]oxadiazol-5-ylmethyl)-cyclopropyl]-acetamide]"
6,122,"CC(=O)N(C)C1(Cc2nc(-c3cncc([C@@](O)(c4ccc(C(C)C)cc4)C4(C)CN(C)C4)c3)no2)CC1 [Example 463, N-[1-(3-{5-[(R)-(1,3-Dimethyl-azetidin-3-yl)-hydroxy-(4-isopropyl-phenyl)-methyl]-pyridin-3-yl}-[1,2,4]oxadiazol-5-ylmethyl)-cyclopropyl]-N-methyl-acetamide]"
7,129,"CCC(=O)NC(C)(C)Cc1nc(-c2cncc([C@@](O)(c3ccc(C(C)C)cc3)C3(C)CN(C)C3)c2)no1 [Example 464, N-[2-(3-{5-[(R)-(1,3-Dimethyl-azetidin-3-yl)-hydroxy-(4-isopropyl-phenyl)-methyl]-pyridin-3-yl}-[1,2,4]oxadiazol-5-yl)-1,1-dimethyl-ethyl]-propionamide]"
8,87.5,COCC(=O)NC(C)(C)Cc1nc(-c2cncc([C@@](O)(c3ccc(C(C)C)cc3)C3(C)CN(C)C3)c2)no1 [Example 465]
9,79.8,COC1(c2nc(-c3cncc([C@@](O)(c4ccc(C(C)C)cc4)C4(C)CN(C)C4)c3)no2)CCN(C(C)=O)CC1 [Example 472]
